Measured values as given in ChEMBL document CHEMBL1153550, “In vitro study of Candida tropicalis isolates exhibiting paradoxical growth in the presence of high concentrations of caspofungin” (2007).
The source made the active and inactive calls.

What was measured:
Candida tropicalis [1] = test: Antifungal activity against 10^5 CFU/ml Candida tropicalis isolate 1 in RPMI 1640 medium at 12.5 ug/ml treated for 24 hrs followed by incubation in drug free medium for 48 hrs by broth microdilution method; format: functional, organism-based
Candida tropicalis [2] = test: Antifungal activity against 2 x 10^7 CFU/ml Candida tropicalis isolate 4 in antibiotic medium 3 after 24 hrs by broth microdilution method; format: functional; settings: isolate 4, 24 h
Candida tropicalis [3] = test: Antifungal activity against 2 x 10^7 CFU/ml Candida tropicalis isolate 8 in antibiotic medium 3 after 24 hrs by broth microdilution method; format: functional; settings: isolate 8, 24 h
Candida tropicalis [4] = test: Antifungal activity against > 2 x 10^7 CFU/ml Candida tropicalis isolate 3 in antibiotic medium 3 assessed as partial growth after 24 hrs by broth microdilution method; format: functional, organism-based
Candida tropicalis [5] = test: Antifungal activity against 10^5 CFU/ml Candida tropicalis isolate 14 in RPMI 1640 medium at 12.5 ug/ml treated for 48 hrs followed by incubation in drug free medium for 48 hrs by broth microdilution method; format: functional, organism-based
Candida tropicalis [6] = test: Antifungal activity against 2 x 10^7 CFU/ml Candida tropicalis isolate 3 in RPMI 1640 medium after 24 hrs by broth microdilution method; format: functional; settings: isolate 3, 24 h
Candida tropicalis [7] = test: Antifungal activity against 10^5 CFU/ml Candida tropicalis isolate 12 in RPMI 1640 medium at 12.5 ug/ml treated for 24 hrs followed by incubation in drug free medium for 48 hrs by broth microdilution method; format: functional, organism-based
Candida tropicalis [8] = test: Antifungal activity Candida tropicalis isolate 4 in RPMI 1640 medium at 12.5 ug/ml after 24 hrs by time-kill assay; format: functional, organism-based
Candida tropicalis [9] = test: Antifungal activity against Candida tropicalis ATCC 750 in RPMI 1640 medium assessed as paradoxical growth at 6.25 ug/ml after 48 hrs by broth microdilution method; format: functional, organism-based
Candida tropicalis [10] = test: Antifungal activity against 10^5 CFU/ml Candida tropicalis clinical isolates in RPMI 1640 medium at 6.25 ug/ml after 48 hrs followed by incubation in drug free medium for 48 hrs by broth microdilution method; format: functional, organism-based
Candida tropicalis [11] = test: Antifungal activity against 2 x 10^7 CFU/ml Candida tropicalis isolate 6 in RPMI 1640 medium after 24 hrs by broth microdilution method; format: functional; settings: isolate 6, 24 h
Candida tropicalis [12] = test: Antifungal activity against 2 x 10^7 CFU/ml Candida tropicalis isolate 1 in antibiotic medium 3 after 24 hrs by broth microdilution method; format: functional; settings: isolate 1, 24 h
Candida tropicalis [13] = test: Antifungal activity against 10^5 CFU/ml Candida tropicalis isolate 4 in RPMI 1640 medium at 12.5 ug/ml treated for 24 hrs followed by incubation in drug free medium for 48 hrs by broth microdilution method; format: functional, organism-based
Candida tropicalis [14] = test: Antifungal activity against 2 x 10^7 CFU/ml Candida tropicalis isolate 2 in antibiotic medium 3 after 24 hrs by broth microdilution method; format: functional; settings: isolate 2, 24 h
Candida tropicalis [15] = test: Antifungal activity against 2 x 10^7 CFU/ml Candida tropicalis isolate 1 in RPMI 1640 medium after 24 hrs by broth microdilution method; format: functional; settings: isolate 1, 24 h
Candida tropicalis [16] = test: Antifungal activity against > 2 x 10^7 CFU/ml Candida tropicalis isolate 10 in antibiotic medium 3 assessed as partial growth after 24 hrs by broth microdilution method; format: functional, organism-based
Candida tropicalis [17] = test: Antifungal activity against 2 x 10^7 CFU/ml Candida tropicalis isolate 14 in RPMI 1640 medium after 24 hrs by broth microdilution method; format: functional; settings: isolate 14, 24 h
Candida tropicalis [18] = test: Antifungal activity against > 2 x 10^7 CFU/ml Candida tropicalis isolate 1 in antibiotic medium 3 assessed as partial growth after 24 hrs by broth microdilution method; format: functional, organism-based
Candida tropicalis [19] = test: Antifungal activity against Candida tropicalis isolate 1 in antibiotic medium 3 assessed as paradoxical growth at 12.5 ug/ml after 24 hrs by broth microdilution method; format: functional, organism-based
Candida tropicalis [20] = test: Antifungal activity against 2 x 10^7 CFU/ml Candida tropicalis isolate 13 in RPMI 1640 medium after 24 hrs by broth microdilution method; format: functional; settings: isolate 13, 24 h
Candida tropicalis [21] = test: Antifungal activity against 2 x 10^7 CFU/ml Candida tropicalis isolate 10 in antibiotic medium 3 after 24 hrs by broth microdilution method; format: functional; settings: isolate 10, 24 h
Candida tropicalis [22] = test: Antifungal activity against 2 x 10^7 CFU/ml Candida tropicalis isolate 6 in antibiotic medium 3 after 24 hrs by broth microdilution method; format: functional; settings: isolate 6, 24 h
Candida tropicalis [23] = test: Antifungal activity against > 2 x 10^7 CFU/ml Candida tropicalis isolate 13 in antibiotic medium 3 assessed as partial growth after 24 hrs by broth microdilution method; format: functional, organism-based
Candida tropicalis [24] = test: Antifungal activity against Candida tropicalis isolate 15 in RPMI 1640 medium assessed as paradoxical growth at 12.5 ug/ml after 48 hrs by broth microdilution method; format: functional, organism-based
Candida tropicalis [25] = test: Antifungal activity against 10^5 CFU/ml Candida tropicalis isolate 10 in RPMI 1640 medium at 12.5 ug/ml treated for 48 hrs followed by incubation in drug free medium for 48 hrs by broth microdilution method; format: functional, organism-based
Candida tropicalis [26] = test: Antifungal activity against 10^5 CFU/ml Candida tropicalis ATCC 750 in RPMI 1640 medium at 0.4 to 12.5 ug/ml treated for 24 hrs followed by incubation in drug free medium for 48 hrs by broth microdilution method; format: functional, organism-based
Candida tropicalis [27] = test: Antifungal activity against > 2 x 10^7 CFU/ml Candida tropicalis isolate 8 in antibiotic medium 3 assessed as partial growth after 24 hrs by broth microdilution method; format: functional, organism-based
Candida tropicalis [28] = test: Antifungal activity against 10^5 CFU/ml Candida tropicalis isolate 6 in antibiotic medium 3 at 12.5 ug/ml treated for 24 hrs followed by incubation in drug free medium for 48 hrs by broth microdilution method; format: functional, organism-based
Candida tropicalis [29] = test: Antifungal activity against 2 x 10^7 CFU/ml Candida tropicalis isolate 4 in RPMI 1640 medium assessed as paradoxical growth at 12.5 ug/ml after 24 hrs by broth microdilution method; format: functional, organism-based
Candida tropicalis [30] = test: Antifungal activity against Candida tropicalis ATCC 750 in RPMI 1640 medium assessed as paradoxical growth at 12.5 ug/ml after 24 hrs by broth microdilution method; format: functional, organism-based
Candida tropicalis [31] = test: Antifungal activity against > 2 x 10^7 CFU/ml Candida tropicalis isolate 9 in antibiotic medium 3 assessed as partial growth after 24 hrs by broth microdilution method; format: functional, organism-based
Candida tropicalis [32] = test: Antifungal activity against 2 x 10^7 CFU/ml Candida tropicalis ATCC 750 in RPMI 1640 medium after 24 hrs by broth microdilution method; format: functional; settings: ATCC 750, 24 h
Candida tropicalis [33] = test: Antifungal activity against 2 x 10^7 CFU/ml Candida tropicalis isolate 9 in RPMI 1640 medium after 24 hrs by broth microdilution method; format: functional; settings: isolate 9, 24 h
Candida tropicalis [34] = test: Antifungal activity against 10^5 CFU/ml Candida tropicalis isolate 8 in RPMI 1640 medium at 12.5 ug/ml treated for 48 hrs followed by incubation in drug free medium for 48 hrs by broth microdilution method; format: functional, organism-based
Candida tropicalis [35] = test: Antifungal activity against 10^5 CFU/ml Candida tropicalis isolate 15 in RPMI 1640 medium at 12.5 ug/ml treated for 48 hrs followed by incubation in drug free medium for 48 hrs by broth microdilution method; format: functional, organism-based
Candida tropicalis [36] = test: Antifungal activity against Candida tropicalis isolate 13 in RPMI 1640 medium assessed as paradoxical growth at 12.5 ug/ml after 48 hrs by broth microdilution method; format: functional, organism-based

CC[C@H](C)C[C@H](C)CCCCCCCCC(=O)N[C@H]1C[C@@H](O)[C@@H](NCCN)NC(=O)[C@@H]2[C@@H](O)CCN2C(=O)[C@H]([C@H](O)CCN)NC(=O)[C@H]([C@H](O)[C@@H](O)c2ccc(O)cc2)NC(=O)[C@@H]2C[C@@H](O)CN2C(=O)[C@H]([C@@H](C)O)NC1=O [CASPOFUNGIN]
inactive: Activity (Candida tropicalis [1]) | Activity (Candida tropicalis [4]) | Activity (Candida tropicalis [5]) | Activity (Candida tropicalis [7]) | Activity (Candida tropicalis [8]) | Activity (Candida tropicalis [10]) | Activity (Candida tropicalis [13]) | Activity (Candida tropicalis [16]) | Activity (Candida tropicalis [18]) | Activity (Candida tropicalis [19]) | Activity (Candida tropicalis [23]) | Activity (Candida tropicalis [25]) | Activity (Candida tropicalis [26]) | Activity (Candida tropicalis [27]) | Activity (Candida tropicalis [28]) | Activity (Candida tropicalis [29]) | Activity (Candida tropicalis [30]) | Activity (Candida tropicalis [31]) | Activity (Candida tropicalis [34]) | Activity (Candida tropicalis [35]) | Activity (Candida tropicalis [36])
active: Activity (Candida tropicalis [9]) | Activity (Candida tropicalis [24])
0.024 µg/mL: MIC (Candida tropicalis [2]) | MIC (Candida tropicalis [3]) | MIC (Candida tropicalis [6]) | MIC (Candida tropicalis [11]) | MIC (Candida tropicalis [12]) | MIC (Candida tropicalis [14]) | MIC (Candida tropicalis [15]) | MIC (Candida tropicalis [17]) | MIC (Candida tropicalis [20]) | MIC (Candida tropicalis [21]) | MIC (Candida tropicalis [22]) | MIC (Candida tropicalis [32]) | MIC (Candida tropicalis [33])
